The supplement of paper PMC8882468
± gives the standard deviation of the averaged measurements.

The compounds below were run on HCI-017.E2 (organoid from an ER-positive breast cancer xenograft) (assay: CTG-3D luminescence at 96 h relative to day-0 seeding control (ratio to day 0); higher = more growth / less cytotoxicity; PDxO 3D drug screen (set 2), 96 h, CTG-3D normalised to day-0 seeding control.). Details: 1 µM.

SMILES	CTG-3D luminescence at 96 h
COc1cccc2c1C(=O)c1c(O)c3c(c(O)c1C2=O)C[C@@](O)(C(=O)CO)C[C@@H]3O[C@H]1C[C@H](N)[C@@H](O)[C@H](C)O1 [epirubicin]	0.562 ± 0.044
CC(=O)c1c(C)c2cnc(Nc3ccc(N4CCNCC4)cn3)nc2n(C2CCCC2)c1=O [palbociclib]	1.98 ± 0.21
O=C(c1cc(Cc2n[nH]c(=O)c3ccccc23)ccc1F)N1CCN(C(=O)C2CC2)CC1 [olaparib]	2.06 ± 0.25

Same assay, conditions: 1 µM; days in culture: 85

SMILES	CTG-3D luminescence at 96 h
COc1cccc2c1C(=O)c1c(O)c3c(c(O)c1C2=O)C[C@@](O)(C(=O)CO)C[C@@H]3O[C@H]1C[C@H](N)[C@@H](O)[C@H](C)O1 [epirubicin]	0.743
CC(=O)c1c(C)c2cnc(Nc3ccc(N4CCNCC4)cn3)nc2n(C2CCCC2)c1=O [palbociclib]	1.66
O=C(c1cc(Cc2n[nH]c(=O)c3ccccc23)ccc1F)N1CCN(C(=O)C2CC2)CC1 [olaparib]	1.56

Same assay, conditions: 10 µM

SMILES	CTG-3D luminescence at 96 h
COc1cccc2c1C(=O)c1c(O)c3c(c(O)c1C2=O)C[C@@](O)(C(=O)CO)C[C@@H]3O[C@H]1C[C@H](N)[C@@H](O)[C@H](C)O1 [epirubicin]	1.07 ± 0.12
CC(=O)c1c(C)c2cnc(Nc3ccc(N4CCNCC4)cn3)nc2n(C2CCCC2)c1=O [palbociclib]	2.346 ± 0.0064
O=C(c1cc(Cc2n[nH]c(=O)c3ccccc23)ccc1F)N1CCN(C(=O)C2CC2)CC1 [olaparib]	1.12 ± 0.051

Same assay, conditions: 10 µM; days in culture: 85

SMILES	CTG-3D luminescence at 96 h
COc1cccc2c1C(=O)c1c(O)c3c(c(O)c1C2=O)C[C@@](O)(C(=O)CO)C[C@@H]3O[C@H]1C[C@H](N)[C@@H](O)[C@H](C)O1 [epirubicin]	1.02
CC(=O)c1c(C)c2cnc(Nc3ccc(N4CCNCC4)cn3)nc2n(C2CCCC2)c1=O [palbociclib]	1.8
O=C(c1cc(Cc2n[nH]c(=O)c3ccccc23)ccc1F)N1CCN(C(=O)C2CC2)CC1 [olaparib]	0.709

Same assay, conditions: 100 µM

SMILES	CTG-3D luminescence at 96 h
COc1cccc2c1C(=O)c1c(O)c3c(c(O)c1C2=O)C[C@@](O)(C(=O)CO)C[C@@H]3O[C@H]1C[C@H](N)[C@@H](O)[C@H](C)O1 [epirubicin]	0.00216 ± 0.00049
CC(=O)c1c(C)c2cnc(Nc3ccc(N4CCNCC4)cn3)nc2n(C2CCCC2)c1=O [palbociclib]	1.25 ± 0.19
O=C(c1cc(Cc2n[nH]c(=O)c3ccccc23)ccc1F)N1CCN(C(=O)C2CC2)CC1 [olaparib]	0.259 ± 0.025

Same assay, conditions: 100 µM; days in culture: 85

SMILES	CTG-3D luminescence at 96 h
COc1cccc2c1C(=O)c1c(O)c3c(c(O)c1C2=O)C[C@@](O)(C(=O)CO)C[C@@H]3O[C@H]1C[C@H](N)[C@@H](O)[C@H](C)O1 [epirubicin]	0.0107
CC(=O)c1c(C)c2cnc(Nc3ccc(N4CCNCC4)cn3)nc2n(C2CCCC2)c1=O [palbociclib]	1.58
O=C(c1cc(Cc2n[nH]c(=O)c3ccccc23)ccc1F)N1CCN(C(=O)C2CC2)CC1 [olaparib]	0.204

Same assay, conditions: 625 fM

SMILES	CTG-3D luminescence at 96 h
COc1cccc2c1C(=O)c1c(O)c3c(c(O)c1C2=O)C[C@@](O)(C(=O)CO)C[C@@H]3O[C@H]1C[C@H](N)[C@@H](O)[C@H](C)O1 [epirubicin]	2.33 ± 0.091
CC(=O)c1c(C)c2cnc(Nc3ccc(N4CCNCC4)cn3)nc2n(C2CCCC2)c1=O [palbociclib]	2.23 ± 0.092
O=C(c1cc(Cc2n[nH]c(=O)c3ccccc23)ccc1F)N1CCN(C(=O)C2CC2)CC1 [olaparib]	2.59 ± 0.23

Same assay, conditions: 625 fM; days in culture: 85

SMILES	CTG-3D luminescence at 96 h
COc1cccc2c1C(=O)c1c(O)c3c(c(O)c1C2=O)C[C@@](O)(C(=O)CO)C[C@@H]3O[C@H]1C[C@H](N)[C@@H](O)[C@H](C)O1 [epirubicin]	1.92
CC(=O)c1c(C)c2cnc(Nc3ccc(N4CCNCC4)cn3)nc2n(C2CCCC2)c1=O [palbociclib]	1.96
O=C(c1cc(Cc2n[nH]c(=O)c3ccccc23)ccc1F)N1CCN(C(=O)C2CC2)CC1 [olaparib]	2.56

These compounds were tested on HCI-015 (organoid from a triple-negative breast cancer xenograft) in the same assay as above. Details: 12.5 pM; days in culture: 333.

SMILES	CTG-3D luminescence at 96 h
COc1cccc2c1C(=O)c1c(O)c3c(c(O)c1C2=O)C[C@@](O)(C(=O)CO)C[C@@H]3O[C@H]1C[C@H](N)[C@@H](O)[C@H](C)O1 [epirubicin]	2.58
CC(=O)c1c(C)c2cnc(Nc3ccc(N4CCNCC4)cn3)nc2n(C2CCCC2)c1=O [palbociclib]	1.88
O=C(c1cc(Cc2n[nH]c(=O)c3ccccc23)ccc1F)N1CCN(C(=O)C2CC2)CC1 [olaparib]	1.88

Same assay, conditions: 12.5 pM; days in culture: 355

SMILES	CTG-3D luminescence at 96 h
COc1cccc2c1C(=O)c1c(O)c3c(c(O)c1C2=O)C[C@@](O)(C(=O)CO)C[C@@H]3O[C@H]1C[C@H](N)[C@@H](O)[C@H](C)O1 [epirubicin]	2.99
CC(=O)c1c(C)c2cnc(Nc3ccc(N4CCNCC4)cn3)nc2n(C2CCCC2)c1=O [palbociclib]	3.11
O=C(c1cc(Cc2n[nH]c(=O)c3ccccc23)ccc1F)N1CCN(C(=O)C2CC2)CC1 [olaparib]	2.43

Same assay, conditions: 12.5 pM; days in culture: 369

SMILES	CTG-3D luminescence at 96 h
COc1cccc2c1C(=O)c1c(O)c3c(c(O)c1C2=O)C[C@@](O)(C(=O)CO)C[C@@H]3O[C@H]1C[C@H](N)[C@@H](O)[C@H](C)O1 [epirubicin]	2
CC(=O)c1c(C)c2cnc(Nc3ccc(N4CCNCC4)cn3)nc2n(C2CCCC2)c1=O [palbociclib]	2.19
O=C(c1cc(Cc2n[nH]c(=O)c3ccccc23)ccc1F)N1CCN(C(=O)C2CC2)CC1 [olaparib]	2.43

Same assay, conditions: 0.00025 µM; days in culture: 333

SMILES	CTG-3D luminescence at 96 h
COc1cccc2c1C(=O)c1c(O)c3c(c(O)c1C2=O)C[C@@](O)(C(=O)CO)C[C@@H]3O[C@H]1C[C@H](N)[C@@H](O)[C@H](C)O1 [epirubicin]	1.36
CC(=O)c1c(C)c2cnc(Nc3ccc(N4CCNCC4)cn3)nc2n(C2CCCC2)c1=O [palbociclib]	1.26
O=C(c1cc(Cc2n[nH]c(=O)c3ccccc23)ccc1F)N1CCN(C(=O)C2CC2)CC1 [olaparib]	1.11

Same assay, conditions: 0.00025 µM; days in culture: 355

SMILES	CTG-3D luminescence at 96 h
COc1cccc2c1C(=O)c1c(O)c3c(c(O)c1C2=O)C[C@@](O)(C(=O)CO)C[C@@H]3O[C@H]1C[C@H](N)[C@@H](O)[C@H](C)O1 [epirubicin]	2
CC(=O)c1c(C)c2cnc(Nc3ccc(N4CCNCC4)cn3)nc2n(C2CCCC2)c1=O [palbociclib]	2.44
O=C(c1cc(Cc2n[nH]c(=O)c3ccccc23)ccc1F)N1CCN(C(=O)C2CC2)CC1 [olaparib]	3.28

Same assay, conditions: 0.00025 µM; days in culture: 369

SMILES	CTG-3D luminescence at 96 h
COc1cccc2c1C(=O)c1c(O)c3c(c(O)c1C2=O)C[C@@](O)(C(=O)CO)C[C@@H]3O[C@H]1C[C@H](N)[C@@H](O)[C@H](C)O1 [epirubicin]	1.58
CC(=O)c1c(C)c2cnc(Nc3ccc(N4CCNCC4)cn3)nc2n(C2CCCC2)c1=O [palbociclib]	1.75
O=C(c1cc(Cc2n[nH]c(=O)c3ccccc23)ccc1F)N1CCN(C(=O)C2CC2)CC1 [olaparib]	1.41

Same assay, conditions: 0.005 µM; days in culture: 333

SMILES	CTG-3D luminescence at 96 h
COc1cccc2c1C(=O)c1c(O)c3c(c(O)c1C2=O)C[C@@](O)(C(=O)CO)C[C@@H]3O[C@H]1C[C@H](N)[C@@H](O)[C@H](C)O1 [epirubicin]	1.49
CC(=O)c1c(C)c2cnc(Nc3ccc(N4CCNCC4)cn3)nc2n(C2CCCC2)c1=O [palbociclib]	1.44
O=C(c1cc(Cc2n[nH]c(=O)c3ccccc23)ccc1F)N1CCN(C(=O)C2CC2)CC1 [olaparib]	1.59

Same assay, conditions: 0.005 µM; days in culture: 355

SMILES	CTG-3D luminescence at 96 h
COc1cccc2c1C(=O)c1c(O)c3c(c(O)c1C2=O)C[C@@](O)(C(=O)CO)C[C@@H]3O[C@H]1C[C@H](N)[C@@H](O)[C@H](C)O1 [epirubicin]	0.533
CC(=O)c1c(C)c2cnc(Nc3ccc(N4CCNCC4)cn3)nc2n(C2CCCC2)c1=O [palbociclib]	1.74
O=C(c1cc(Cc2n[nH]c(=O)c3ccccc23)ccc1F)N1CCN(C(=O)C2CC2)CC1 [olaparib]	1.71
